Experiment in all cases: relative viability (nuclei count vs DMSO), 5 days (fraction); higher = more cells survive
Compound in test [1]: CC1=CN=C(N=C1C2=CNC(=C2)C(=O)N[C@H](CO)C3=CC(=CC=C3)Cl)NC4=C(C=C(C=C4)F)Cl [VX-11e] + COc1cc2c(Oc3ccc(NC(=O)C4(C(=O)Nc5ccc(F)cc5)CC4)cc3F)ccnc2cc1OCCCN1CCOCC1 [Foretinib] (partner 0.25 µM)
A digest of the protocol:
(§1)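 Relative viability is defined as nuclei in treated wells over nuclei in vehicle wells. Duplicate plates were run and medians reported. Lung cancer cell lines in 1536-well plates were dosed by pin tool one day after seeding, with one drug or with a fixed anchor-drug dose plus five library-drug doses (not always all listed) in √10 steps, and nuclei were counted after 5 days.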

Compound in test [2]: CC1=CN=C(N=C1C2=CNC(=C2)C(=O)N[C@H](CO)C3=CC(=CC=C3)Cl)NC4=C(C=C(C=C4)F)Cl [VX-11e] + Cc1nc(NC(=O)N2CCC[C@H]2C(N)=O)sc1-c1ccnc(C(C)(C)C(F)(F)F)c1 [Alpelisib] (partner 2 µM)
A digest of the protocol:
as §1

Compound in test [3]: CC1=CN=C(N=C1C2=CNC(=C2)C(=O)N[C@H](CO)C3=CC(=CC=C3)Cl)NC4=C(C=C(C=C4)F)Cl [VX-11e] + O=C(c1cc(Cc2n[nH]c(=O)c3ccccc23)ccc1F)N1CCN(C(=O)C2CC2)CC1 [Olaparib] (partner 8 µM)
A digest of the protocol:
as §1

Compound in test [4]: CC1=CN=C(N=C1C2=CNC(=C2)C(=O)N[C@H](CO)C3=CC(=CC=C3)Cl)NC4=C(C=C(C=C4)F)Cl [VX-11e] + Nc1nc2[nH]cc(CCc3ccc(C(=O)N[C@@H](CCC(=O)O)C(=O)O)cc3)c2c(=O)[nH]1 [Pemetrexed] (partner 0.2 µM)
A digest of the protocol:
as §1

For NCI-H1734, the relative viability in test [1] (first compound 0.04 µM) worked out at 0.941; in test [1] (first compound 0.1265 µM) it was 0.852; in test [1] (first compound 0.4 µM) it was 0.81; in test [1] (first compound 1.265 µM), 0.706; in test [1] (first compound 4 µM), 0.344; in test [2] (first compound 0.04 µM), 0.689. For the same cell line, the relative viability in test [2] (first compound 0.1265 µM) came to 0.691; in test [2] (first compound 0.4 µM), 0.648; in test [2] (first compound 1.265 µM), 0.674; in test [2] (first compound 4 µM), 0.41; in test [3] (first compound 0.04 µM) it was 0.632; in test [3] (first compound 0.1265 µM) it was 0.601. Besides, the relative viability in test [3] (first compound 0.4 µM) was found to be 0.607; in test [3] (first compound 1.265 µM), 0.542; in test [3] (first compound 4 µM), 0.365; in test [4] (first compound 0.04 µM), 0.428; in test [4] (first compound 0.1265 µM), 0.398; in test [4] (first compound 0.4 µM) it was 0.445. The relative viability in test [4] (first compound 1.265 µM) was 0.306; in test [4] (first compound 4 µM), 0.315.
With NCI-H1792, the relative viability stood at 0.799 in test [2] (first compound 0.04 µM); 0.631 in test [2] (first compound 0.1265 µM); 0.649 in test [2] (first compound 0.4 µM); 0.628 in test [2] (first compound 1.265 µM); 0.202 in test [2] (first compound 4 µM); 0.541 in test [3] (first compound 0.1265 µM). The relative viability in test [3] (first compound 1.265 µM) is 0.518; in test [3] (first compound 4 µM), 0.287; in test [4] (first compound 0.1265 µM) it was 0.719; in test [4] (first compound 1.265 µM) it was 0.343; in test [4] (first compound 4 µM), 0.0593.
NCI-H23: the relative viability in test [1] (first compound 0.04 µM) stood at 0.896; in test [1] (first compound 0.1265 µM), 0.984; in test [1] (first compound 1.265 µM) it was 0.767; in test [1] (first compound 4 µM) it was 0.472; in test [2] (first compound 0.04 µM) it was 0.575; in test [2] (first compound 0.1265 µM), 0.53. Besides, the relative viability was 0.435 in test [2] (first compound 0.4 µM); 0.384 in test [2] (first compound 1.265 µM); 0.242 in test [2] (first compound 4 µM); 0.292 in test [3] (first compound 0.04 µM); 0.366 in test [3] (first compound 0.1265 µM); 0.359 in test [3] (first compound 0.4 µM). Further, the relative viability was found to be 0.324 in test [3] (first compound 1.265 µM); 0.186 in test [3] (first compound 4 µM); 0.517 in test [4] (first compound 0.04 µM); 0.583 in test [4] (first compound 0.1265 µM); 0.214 in test [4] (first compound 0.4 µM); 0.312 in test [4] (first compound 1.265 µM). The relative viability in test [4] (first compound 4 µM) is 0.222.
For NCI-H2405, the relative viability is 1.04 in test [1] (first compound 0.04 µM); 1.01 in test [1] (first compound 0.1265 µM); 1.05 in test [1] (first compound 0.4 µM); 1.08 in test [1] (first compound 1.265 µM); 0.455 in test [1] (first compound 4 µM); 0.857 in test [2] (first compound 0.04 µM). For the same cell line, the relative viability in test [2] (first compound 0.1265 µM) came out at 0.726; in test [2] (first compound 1.265 µM) it was 0.602; in test [2] (first compound 4 µM), 0.209; in test [3] (first compound 0.04 µM) it was 0.961; in test [3] (first compound 0.1265 µM), 0.814; in test [3] (first compound 0.4 µM), 0.333. Moreover, the relative viability in test [3] (first compound 1.265 µM) amounted to 0.873; in test [3] (first compound 4 µM) it was 0.379; in test [4] (first compound 0.04 µM), 1.09; in test [4] (first compound 0.1265 µM) it was 0.957; in test [4] (first compound 0.4 µM) it was 0.678; in test [4] (first compound 1.265 µM) it was 0.989. Further, in test [4] (first compound 4 µM), the relative viability was determined as 0.501.
In the case of ChaGo-K-1, the relative viability is 0.878 in test [1] (first compound 0.04 µM); 0.855 in test [1] (first compound 0.1265 µM); 0.941 in test [1] (first compound 0.4 µM); 0.923 in test [1] (first compound 1.265 µM); 0.928 in test [1] (first compound 4 µM); 0.451 in test [3] (first compound 0.04 µM). In addition, the relative viability in test [3] (first compound 0.1265 µM) is 0.473; in test [3] (first compound 0.4 µM), 0.416; in test [3] (first compound 1.265 µM), 0.43; in test [3] (first compound 4 µM), 0.378; in test [4] (first compound 0.04 µM), 0.268; in test [4] (first compound 0.1265 µM), 0.261. The relative viability in test [4] (first compound 0.4 µM) came out at 0.248; in test [4] (first compound 1.265 µM), 0.25; in test [4] (first compound 4 µM), 0.234.
Take NCI-H1563: the relative viability in test [1] (first compound 0.04 µM) worked out at 1.02; in test [1] (first compound 0.1265 µM), 0.832; in test [1] (first compound 0.4 µM) it was 0.862; in test [1] (first compound 1.265 µM), 0.922; in test [1] (first compound 4 µM), 0.763; in test [2] (first compound 0.04 µM), 0.86. In addition, the relative viability in test [2] (first compound 0.1265 µM) was determined as 0.84; in test [2] (first compound 0.4 µM), 0.897; in test [2] (first compound 1.265 µM), 0.917; in test [2] (first compound 4 µM), 0.874; in test [4] (first compound 0.04 µM), 0.766; in test [4] (first compound 0.1265 µM), 0.798. Besides, the relative viability in test [4] (first compound 0.4 µM) turned out to be 0.915; in test [4] (first compound 1.265 µM) it was 0.631; in test [4] (first compound 4 µM), 0.655.
For NCI-H1648, the relative viability in test [3] (first compound 0.1265 µM) was 0.658; in test [3] (first compound 0.4 µM) it was 0.765; in test [3] (first compound 1.265 µM) it was 0.855; in test [3] (first compound 4 µM), 0.52; in test [4] (first compound 0.1265 µM), 0.891; in test [4] (first compound 0.4 µM), 0.866. Also, the relative viability in test [4] (first compound 1.265 µM) is 0.596; in test [4] (first compound 4 µM), 0.674.
In the case of Calu-6, the relative viability was 0.969 in test [1] (first compound 0.04 µM); 0.869 in test [1] (first compound 0.1265 µM); 0.829 in test [1] (first compound 0.4 µM); 0.397 in test [1] (first compound 1.265 µM); 0.103 in test [1] (first compound 4 µM); 1.12 in test [2] (first compound 0.04 µM). Besides, the relative viability in test [2] (first compound 0.1265 µM) was found to be 0.98; in test [2] (first compound 0.4 µM) it was 0.94; in test [2] (first compound 1.265 µM), 0.456; in test [2] (first compound 4 µM) it was 0.125; in test [3] (first compound 0.04 µM), 0.672; in test [3] (first compound 0.1265 µM), 0.579. The relative viability was 0.562 in test [3] (first compound 0.4 µM), 0.31 in test [3] (first compound 1.265 µM) and 0.108 in test [3] (first compound 4 µM).
SW 900: the relative viability in test [1] (first compound 0.04 µM) turned out to be 0.851; in test [1] (first compound 0.1265 µM), 0.943; in test [1] (first compound 0.4 µM) it was 0.969; in test [1] (first compound 1.265 µM) it was 0.794; in test [1] (first compound 4 µM), 0.519; in test [3] (first compound 0.04 µM), 0.879. For the same cell line, the relative viability was 0.888 in test [3] (first compound 0.1265 µM); 0.836 in test [3] (first compound 1.265 µM); 0.581 in test [3] (first compound 4 µM); 0.49 in test [4] (first compound 0.04 µM); 0.452 in test [4] (first compound 0.1265 µM); 0.36 in test [4] (first compound 1.265 µM). In addition, in test [4] (first compound 4 µM), the relative viability stood at 0.294.
